Measurements: patent US5527900A, “N3-alkyl-2',5'-0-silylated-3'-spiro-thymidine derivatives” (Stitching Rega VZW, priority 1991, dated 1996)
In brackets after ≈: the same amount, converted by molar mass. Read-outs that look alike come from different tables or passages of the source.

Tests used:
HIV-1 = experiment: Antiviral activity upon delayed addition to HIV-1-infected MT-4 cells; format: cell-based; settings: for antiviral activity on delayed addition: addition delayed by 41 to 48 hours; for decrease of antiviral activity on delayed addition: addition delayed by 17-24 hours, data not shown
Protocol: (§1) In order to evaluate the inhibitory effects against retrovirus-induced cytopathogenicity in MT-4cells, said cells (5×10^5 cells/ml) were suspended in fresh culture medium and infected with HIV-1, HIV-2 or SIOV at 100 times the cell culture infective dose-50 (CCID50) per ml cell suspension (1 CCID50 being the dose infective for 50% of the cell cultures). Then, 100 μl of the infected cell suspension were transferred to microplate wells, mixed with 100 μl of the appropriate dilutions of the test compounds, and further incubated at 37° C. After 5 days, the number of viable cells was determined in a blood cell-counting chamber by trypan blue staining for both virus-infected and mock-infected cell cultures.
Mt-4 cells were suspended in culture medium, infected with HIV-1 and brought into microplate wells as described above. […] After 5 days, the number of viable cells was determined and the EC50 and CC50 values for the test compounds were defined as described in example 1.

MT-4 cells [1] = experiment: Cytotoxicity for MT-4 cells depending on exposure time; format: cell-based
Protocol: The toxicity of test compounds upon a 2-hr incubation period was determined by exposing MT-4 cells (3.5×10^5 cells/ml) to 100, 20, 4, 0.8 or 0.16 μg/ml of the test compounds for 2 hours at 37° C. Subsequently the cells were washed with culture medium. The pretreated cells were seeded in microplate wells at 70×10^3 cells/200 μl-well and allowed to grow for 3 days at 37° C. Control cultures received similar concentrations of the test compounds during the whole incubation period. Then, cells were counted in a Coulter counter (Harpenden Hertz, England) and the CC50 values were determined for each compound.
Mt-4 cells were suspended in culture medium, infected with HIV-1 and brought into microplate wells as described above.

[2] = Partition coefficient (Pa) between 1-octanol and 10 mM potassium phosphate buffer; format: physicochemical; settings: 1-octanol / 10 mM potassium phosphate buffer, pH 7.5, 50 μM
Protocol: Partition of the test compounds between 1-octanol (Merck, Darmstadt, Germany) and 10 mM potassium phosphate buffer, pH, 7.5 (Merck), was measured as described in Balzarini et al., Biochem, Biophys. Res. Commun. 158: 413-422 (1989). Briefly, a 50 μM concentration of the test compound in potassium phosphate buffer was thoroughly mixed with an equal volume of 1-octanol for 30 min at room temperature. Then, the mixture was further equilibrated at room temperature and UV absorption was measured for the aqueous and alcoholic liquid phases. The partition coefficient (Pa) was calculated as the ratio of the compound concentration present in the 1-octanol phase to the compound concentration present in the aqueous phase.

[3] = AIDS patients; cited from earlier work
[4] = Cytotoxicity for mock-infected MT-4 cells; settings: human, mt-4 cells
Protocol: as §1

MT-4 cells [5] = experiment: Cytotoxicity for mock-infected MT-4 cells; settings: for cytotoxicity to MT-4 cells (in words): at 100 μg/ml
Protocol: as §1

MT-4 cell DNA synthesis = experiment: Incorporation of radiolabeled precursors into MT-4 cell DNA; format: cell-based; settings: Homo sapiens
Text: (§2) The radiolabeled nucleosides [methyl-^3 H]dThd (specific radioactivity: 40 Ci/mmol), [5-^3 H]dUrd (specific radioactivity: 27 Ci/mmol), [5-^3 H]dCyc (specific radioactivity: 18.2 Ci/mmol) and the radiolabeled amino acid L-[4,5-^3 H]leucine (specific radioactivity: 52 Ci/mmol were derived from the Radiochemcial Centre (Amersham, England); [5-^3 H]Urd (specific radioactivity: 21 Ci/mmol) and [5-^3 H]Cyd (specific radioactivity: 21 Ci/mmol) and were obtained from Moravek Biochemicals Inc. (Brea, Calif.)
(§3) The incorporation of [methyl-^3 H]dThd, [5-^3 H]dUrd, [5-^3 H]dCyd, [5-^3 H]Urd, [5-^3 H]Cyd and L-[4,5-^3 H]1eu into TCA-insoluble MT-4 cell material was measured in wells of a 96-well microtiter plate (Falcon-3072, Becton-Dickinson, New Jersey). To each well were added 10^5 MT-4 cells, 0.25 μCi of the radiolabeled precursor and a given amount of test compound. The cells were allowed to proliferate for 20 to 24 hr at 37° C. in a humidified, CO2 -controlled atmosphere. At the end of this incubation period, the contents of the wells (200 μl) were brought onto 25-mm glass fiber filters (type A/E, Gelman Instrument Company, Ann Arbor, Mich.), and mounted on a Millipore 3025 sampling manifold apparatus. The filters were washed twice with 2 ml and 5 ml cold NaCl/Pi (phosphte-buffered saline), twice with 2 and 5 ml cold 10% trichloroacetic acid (TCA), twice with 5 and 7.5 ml cold 5% TCA, and twice with 1 ml cold ethanol.

MT-4 cell RNA synthesis = experiment: Incorporation of radiolabeled precursors into MT-4 cell RNA; format: cell-based; settings: Homo sapiens
Text: as §2, §3

[6] = tested on: MT-4 cell protein synthesis; experiment: Incorporation of radiolabeled leucine into MT-4 cell protein; format: cell-based; settings: Homo sapiens
Text: as §2, §3

HIV-1 mutant strains = experiment: Resistance of HIV-1 strains selected against compounds 5, 6 and 7; format: cell-based
HIV-1 (HTLV-IIIB) = experiment: Anti-retrovirus activity: inhibition of HIV-1-induced cytopathogenicity in MT-4 cells; format: cell-based; settings: for EC50: Human immunodeficiency virus 1, IIIB; for S.I. (Selectivity Index): Table 1, CC50/EC50, MT-4 cells
Text: The viruses used were moloney murine sarcoma virus (MSV), HIV-1 (strain HTLV-IIIB, kindly provided by R. C. Gallo and M. Popovic, National Cancer Institute, Bethesda, Md.), HIV-2 (strain LAV-2(ROD)), kindly provided by L. Montagnier (Pasteur Institute, Paris, France), simian immunodeficiency virus (SIV) (strain SIVMAC251, kindly provided by C. Bruck, RIT-Smith-Kline, Rixensart, Belgium).
as §1

[7] = tested on: MT-4 cell DNA, RNA or protein synthesis; experiment: Incorporation of radiolabeled DNA, RNA or protein precursors into TCA-insoluble MT-4 cell material (summary in words); format: cell-based; settings: for inhibition of incorporation of dThd, dUrd, dCyd, Urd, Cyd or leucine: at 100 μg/ml
Text: as §2, §3

HIV-2 strain (EHO) = experiment: Activity against HIV-2 strain EHO; format: cell-based
[8] = target: reverse transcriptase enzyme of the TSAO-resistant HIV-1 strains (HIV-1 M:B_HXB2R, UniProt P04585, E725K); format: binding; settings: Glu-138 to Lys
[9] = MT4, read-out: 50% effective concentration (EC50)
[10] = MT4, MT-4 cells, 20 to 24 hr, read-out: IC50, [5-3H]dCyd incorporation
[11] = MT4, MT-4 cells, 20 to 24 hr, read-out: IC50, [5-3H]dUrd incorporation
[12] = MT4, MT-4 cells, 20 to 24 hr, read-out: IC50, [methyl-3H]dThd incorporation
[13] = MT4, MT-4 cells, 20 to 24 hr, read-out: IC50, [5-3H]Cyd incorporation
[14] = MT4, MT-4 cells, 20 to 24 hr, read-out: IC50, [5-3H]Urd incorporation
[15] = MT4, MT-4 cells, 20 to 24 hr, read-out: IC50, L-[4,5-3H]leucine incorporation

SMILES | antiviral activity on delayed addition (HIV-1) | CC50 at 120 h [4] [µg/mL] | cytotoxicity to MT-4 cells (in words) (MT-4 cells [5]) | presence in the n-octanol phase compared to the aqueous phase [2] | logD at 50 µM ([2]; room temperature) | amino acid change in reverse transcriptase of HIV-1 strains selected for resistance (HIV-1 mutant strains) | EC50 (HIV-1 (HTLV-IIIB); MT4, 120 h) [µg/mL] | S.I. (Selectivity Index) (HIV-1 (HTLV-IIIB)) | IC50 (MT-4 cell DNA synthesis; [10]) [µg/mL] | IC50 (MT-4 cell DNA synthesis; [11]) [µg/mL] | IC50 (MT-4 cell DNA synthesis; [12]) [µg/mL] | IC50 (MT-4 cell RNA synthesis; [13]) [µg/mL] | IC50 (MT-4 cell RNA synthesis; [14]) [µg/mL] | IC50 [6, 15] [µg/mL] | inhibition of incorporation of dThd, dUrd, dCyd, Urd, Cyd or leucine [7] | other results
Cc1cn([C@H]2C[C@H](N=[N+]=[N-])[C@@H](CO)O2)c(=O)[nH]c1=O [AZT, 3'-Azido-3'-deoxythymidine, reference compound] | almost totally lost | – | – | – | – | – | – | – | – | – | – | – | – | – | – | cytostatic activity depending on exposure time (MT-4 cells [1]; data not shown): less cytostatic the shorter its exposure time to MT-4 cells; partition coefficient (Pa) ([2]; room temperature): 1.12; toxic side effects on long-term treatment [3]: bone marrow suppression
Cc1cn([C@@H]2O[C@H](CO[Si](C)(C)C(C)(C)C)[C@@]3(OS(=O)(=O)C=C3N)[C@H]2O[Si](C)(C)C(C)(C)C)c(=O)[nH]c1=O [Compound 5, {1-[2', 5'-Bis-O-(tert-butyldimethylsilyl)-β-D-ribofuranosyl]thymine}-3'-spiro-5"-{4"-amino-1",2"-oxathiole-2", 2"-dioxide}] | almost totally lost | 7.7 (≈ 13.1 µM) | not cytotoxic | more than 95% | > 1.3 | glutamic acid change at position 138 to lysine | – | – | – | – | – | – | – | – | – | decrease of antiviral activity on delayed addition (HIV-1): 10 fold; toxicity for MT-4 cells depending on contact time (MT-4 cells [1]; time of contact with the cells varied): not affected by the time that the compound had remained in contact with the cells; IC50 (MT-4 cell DNA synthesis; MT4, read-out: IC50, [5-3H]dCyd incorporation): 115 µg/mL (≈ 195 µM); IC50 (MT-4 cell DNA synthesis; MT4, read-out: IC50, [5-3H]dUrd incorporation): 9.1 µg/mL (≈ 15.4 µM); IC50 (MT-4 cell DNA synthesis; MT4, read-out: IC50, [methyl-3H]dThd incorporation): 13 µg/mL (≈ 22 µM); IC50 (MT-4 cell RNA synthesis; MT4, read-out: IC50, [5-3H]Cyd incorporation): 8 µg/mL (≈ 13.6 µM); IC50 (MT-4 cell RNA synthesis; MT4, read-out: IC50, [5-3H]Urd incorporation): 11 µg/mL (≈ 18.6 µM); IC50 ([6]; MT4, read-out: IC50, L-[4,5-3H]leucine incorporation): 11.6 µg/mL (≈ 19.7 µM)
Cc1cn([C@@H]2O[C@H](CO[Si](C)(C)C(C)(C)C)[C@@]3(OS(=O)(=O)C=C3N)[C@H]2O[Si](C)(C)C(C)(C)C)c(=O)n(C)c1=O [Compound 6] | almost totally lost | 139 (≈ 230 µM) | not cytotoxic | more than 95% | > 1.3 | glutamic acid change at position 138 to lysine | 0.034 (≈ 0.0563 µM) | 4088 | > 100 | > 100 | > 100 | > 100 | > 100 | > 100 | did not markedly inhibit | Selectivity Index (HIV-1 (HTLV-IIIB)): 4088; EC50 (HIV-1 (HTLV-IIIB); [9]): 0.034 µg/mL (≈ 0.0563 µM); decrease of antiviral activity on delayed addition (HIV-1): 10 fold
CCn1c(=O)c(C)cn([C@@H]2O[C@H](CO[Si](C)(C)C(C)(C)C)[C@@]3(OS(=O)(=O)C=C3N)[C@H]2O[Si](C)(C)C(C)(C)C)c1=O [Compound 7, {1-[2', 5'-Bis-O-(tert-butyldimethylsily)-62 -D-ribofuranosyl]-3-N-ethyl-thymine}-3'-spiro-5"-{4"-amino-1", 2"-oxathiole-2",2"-dioxide}] | – | 73 (≈ 118 µM) | – | more than 95% | > 1.3 | glutamic acid change at position 138 to lysine | 0.073 (≈ 0.118 µM) | 1000 | – | – | – | – | – | – | – | Selectivity Index (HIV-1 (HTLV-IIIB)): 1000; EC50 (HIV-1 (HTLV-IIIB); [9]): 0.073 µg/mL (≈ 0.118 µM)
CC(C)(C)[Si](C)(C)OC[C@H]1O[C@@H](n2ccc(N)nc2=O)[C@H](O[Si](C)(C)C(C)(C)C)[C@]12OS(=O)(=O)C=C2N [Compound 14, {1-[2', 5'-Bis-O-(tert-butyldimethylsilyl)-β-D-ribofuranosyl]-cytosine}-3'-spiro-5"-{4"-amino-1",2"-oxathiole-2",2"-dioxide}] | – | ≥ 200 | not cytotoxic | more than 95% | > 1.3 | – | 0.439 (≈ 0.764 µM) | ≥ 456 | > 100 | > 100 | > 100 | > 100 | > 100 | > 100 | did not markedly inhibit | activity against HIV-2 strain (EHO) (HIV-2 strain (EHO)): inactive
Cc1cn([C@@H]2O[C@H](CO[Si](C)(C)C(C)(C)C)[C@@]3(OS(=O)(=O)C=C3N)[C@H]2O[Si](C)(C)C(C)(C)C)c(=O)nc1N [Compound 16, {1-[2', 5'-Bis-O-(tert-butyldimethylsilyl)-β-D-ribofuranosyl]-5-methyl-cytosine}-3'-spiro-5"-{4"-amino-1",2"-oxathiole-2",2"-dioxide}] | – | 17.7 (≈ 30.1 µM) | not cytotoxic | – | – | – | 0.072 (≈ 0.122 µM) | 246 | 14 (≈ 23.8 µM) | 9.9 (≈ 16.8 µM) | 14 (≈ 23.8 µM) | 11 (≈ 18.7 µM) | 8.9 (≈ 15.1 µM) | 13 (≈ 22.1 µM) | did not markedly inhibit | inhibition of MT-4 cell proliferation (in words) (MT-4 cells [5]): inhibitory to MT-4 cell proliferation; activity against HIV-2 strain (EHO) (HIV-2 strain (EHO)): inactive; inhibition of incorporation of precursors relative to inhibition of MT-4 cell proliferation ([7]; Table 2 discussion): equally inhibitory; preferential inhibition of incorporation of one precursor over the others ([7]; Table 2 discussion): neither
Cc1ccnc2c1NC(=O)c1cccnc1N2C1CC1 [Nevirapine, reference compound] | – | – | – | – | – | – | – | – | – | – | – | – | – | – | – | affinity of mutated reverse transcriptase [8]: not for other HIV-1-specific compounds
